Several values for one entry are separate records, joined by “and”; a condition that tells them apart may be missing. Identical values can stand only once.
What was measured:
[1] = species: Canis familiaris; assay: In vitro activity in isolated canine cardiac Purkinje fibers given as 20 percent increase or decrease in action potential duration; assay type: functional, Canis lupus familiaris, Purkinje fiber
[2] = species: Canis familiaris; assay: In vitro electrophysiological activity in isolated canine cardiac ventricular muscle tissue given as maximum change in FRP from control value at 100 uM concentration; assay type: functional, Canis lupus familiaris
[3] = species: Canis familiaris; assay: In vitro activity in isolated canine cardiac Purkinje fibers given as maximum change in APD95 from control value at 100 uM of concentration; assay type: functional, Canis lupus familiaris, Purkinje fiber
[4] = species: Canis familiaris; assay: In vitro activity in isolated canine cardiac ventricular muscle tissue given as 20 percent increase or decrease in FRP (functional refractory period); parameters: species or system Canis lupus familiaris
[5] = species: Canis familiaris; assay: The compound was evaluated for the mean effective dose for antiarrhythmic efficacy in PES model; assay type: functional; details: Canis lupus familiaris, Heart; read-out: MED
[6] = test system: Canis familiaris; assay: The compound was evaluated the change in heart rate at 10 mg/kg active dose; assay type: functional, Canis lupus familiaris
[7] = species: Canis familiaris; assay: The compound was evaluated for the change in blood pressure at MED for 0.3-10 dose range in PES model; assay type: functional, Canis lupus familiaris
[8] = species: Canis familiaris; assay: The compound was evaluated for the change in heart rate at MED for 0.3-10 dose range in PES model; assay type: functional, Canis lupus familiaris
[9] = test system: Canis familiaris; assay: The compound was evaluated the change in blood pressure at 10 mg/kg active dose; assay type: functional, Canis lupus familiaris
[10] = test system: Canis familiaris; assay: The compound was evaluated the change in functional refractory period at 10 mg/kg active dose; parameters: species or system Canis lupus familiaris
[11] = species: Canis familiaris; assay: The compound was evaluated for the change in heart rate at MED for 0.3-30 dose range in PES model.; assay type: functional, Canis lupus familiaris
[12] = species: Canis familiaris; assay: The compound was evaluated for the change in blood pressure at MED for 0.3-30 dose range in PES model; assay type: functional, Canis lupus familiaris
[13] = species: Canis familiaris; assay: In vitro activity in isolated canine cardiac Purkinje fibers given as maximum change in APD95 from control value at 10 uM of concentration; assay type: functional, Canis lupus familiaris, Purkinje fiber
[14] = species: Canis familiaris; assay: The compound was evaluated for the change in heart rate at MED for 0.1-30 dose range in PES model; assay type: functional, Canis lupus familiaris
[15] = species: Canis familiaris; assay: The compound was evaluated for the change in blood pressure at MED for 0.1-30 dose range in PES model; assay type: functional, Canis lupus familiaris
[16] = species: Canis familiaris; assay: In vitro electrophysiological activity in isolated canine cardiac ventricular muscle tissue given as maximum change in FRP from control value at 100 uM concentration; NR = Not reached; assay type: functional; details: Canis lupus familiaris
[17] = species: Canis familiaris; assay: The compound was evaluated for the change in heart rate at MED for 0.1-10 dose range in PES model; assay type: functional, Canis lupus familiaris
[18] = species: Canis familiaris; assay: The compound was evaluated for the change in blood pressure at MED for 0.1-10 dose range in PES model; assay type: functional, Canis lupus familiaris

| Structure (SMILES) | C20 APD95 [1] [µM] | FRP [2] | APD95 [3] [%] | C20 FRP [4] | also measured |
| --- | --- | --- | --- | --- | --- |
| CC1=NCCN1CC(=O)c1ccc(NS(C)(=O)=O)cc1 | 1.3 | 38% | 74 | 6.3 µM | – |
| C[n+]1ccn(CC(O)c2ccc(NS(C)(=O)=O)cc2)c1.[Cl-] (configuration not stated) | 1.6 | 31% | 50 | 5.9 µM | minimal effective dose [5]: 6.5 mg/kg; HR [6]: -10%; BP [7]: 0%; HR [8]: -23%; BP [9]: 5%; FRP [10]: 21% |
| CC(C(O)c1ccc(NS(C)(=O)=O)cc1)n1cc[n+](C)c1.[Cl-] (configuration not stated) | 4.2 | 31% | 36 | 11.2 µM | – |
| CS(=O)(=O)Nc1ccc(C(=O)C[n+]2ccsc2)cc1.[Cl-] | 3.1 | 17% | 80 | 10 µM | – |
| CC1=NCCN1CC(O)c1ccc(NS(C)(=O)=O)cc1.Cl (configuration not stated) | 0.6 | 42% and 38% | 63 | 1.1 µM and 1.9 µM | minimal effective dose [5]: 2 mg/kg; HR [11]: -21%; BP [12]: -1%; HR [6]: -23%; BP [9]: 2%; FRP [10]: 22% |
| C[n+]1ccn(CCc2ccc(O)cc2)c1.[Cl-] | 6.2 | 7% | 20 | 50.1 µM | APD95 [13]: 23% |
| Cc1n2c(c[n+]1C)C(c1ccc(NS(C)(=O)=O)cc1)=CCC2.[I-] | 2.8 | 40% | 38 | 2.9 µM | – |
| C[n+]1ccn(/C=C/c2ccc(O)cc2)c1.[Br-] | 10.2 | – | 27 | – | APD95 [13]: 23% and 20% |
| C[n+]1ccn(CC(C)(O)c2ccc(NS(C)(=O)=O)cc2)c1.[Cl-] (configuration not stated) | 1.5 | 29% | 71 | 24.3 µM | – |
| CC(C)NCC(O)c1ccc(NS(C)(=O)=O)cc1 (configuration not stated) [SOTALOL] | 14.4 | 23% | 48 | 24.7 µM | minimal effective dose [5]: 1.4 mg/kg; HR [6]: -11%; HR [14]: -23%; BP [15]: -23%; BP [9]: 8%; FRP [10]: 16% |
| CC(C(=O)c1ccc(NS(C)(=O)=O)cc1)n1cc[n+](C)c1.[Cl-] (configuration not stated) | 3 | 22% | 65 | 7.7 µM | – |
| Cn1cc[n+](C)c1C(O)c1ccc(NS(C)(=O)=O)cc1.[I-] (configuration not stated) | 20.7 | 17% | 37 | – | – |
| Cc1n2c(c[n+]1C)C(c1ccc(NS(C)(=O)=O)cc1)CCC2.[I-] (configuration not stated) | 46.6 | – | 27 | – | FRP [16]: Not reached |
| CCCCCCC[N+](CC)(CC)CCCCc1ccc(Cl)cc1 [CLOFILIUM] | 0.26 | 7% | – | – | HR [17]: -12%; minimal effective dose [5]: 0.63 mg/kg; BP [18]: 2%; APD95 [13]: 39%; HR [6]: -18%; BP [9]: -4%; FRP [10]: 22% |
